Test results as given in ChEMBL document CHEMBL3769388, “Optimization of a Dicarboxylic Series for in Vivo Inhibition of Citrate Transport by the Solute Carrier 13 (SLC13) Family” (J Med Chem, 2016).
The source made the active and inactive calls. The calls are words filed in the database; no cut-off is given here.

Columns and labels:
[1] = Renal clearance in Wistar Han rat at 1 mg/kg, iv by LC-MS/MS analysis; type: ADME, organism-based, Kidney; details: in vivo
[2] = species on record: Rattus norvegicus; assay: Increase in [12C]-citrate levels in rat plasma measured over 140 to 150 mins by UPLC-MS/MS analysis; type: functional, organism-based
[3] = tested on: Mus musculus; assay: Increase in urinary calcium level in C57BL/6J mouse at 250 mg/kg, po measured after 7 hrs by UPLC-MS/MS analysis; type: functional, organism-based; details: Urine
[4] = biological target: Alpha-1A adrenergic receptor (Homo sapiens) (UniProt P35348); assay: Inhibition of ADRA1A (unknown origin)
[5] = biological target: Vascular endothelial growth factor receptor 2 (Homo sapiens) (UniProt P35968); assay: Inhibition of VEGFR2 (unknown origin)
Vascular endothelial growth factor receptor 2 (Homo sapiens), sequence (P35968 whole entry): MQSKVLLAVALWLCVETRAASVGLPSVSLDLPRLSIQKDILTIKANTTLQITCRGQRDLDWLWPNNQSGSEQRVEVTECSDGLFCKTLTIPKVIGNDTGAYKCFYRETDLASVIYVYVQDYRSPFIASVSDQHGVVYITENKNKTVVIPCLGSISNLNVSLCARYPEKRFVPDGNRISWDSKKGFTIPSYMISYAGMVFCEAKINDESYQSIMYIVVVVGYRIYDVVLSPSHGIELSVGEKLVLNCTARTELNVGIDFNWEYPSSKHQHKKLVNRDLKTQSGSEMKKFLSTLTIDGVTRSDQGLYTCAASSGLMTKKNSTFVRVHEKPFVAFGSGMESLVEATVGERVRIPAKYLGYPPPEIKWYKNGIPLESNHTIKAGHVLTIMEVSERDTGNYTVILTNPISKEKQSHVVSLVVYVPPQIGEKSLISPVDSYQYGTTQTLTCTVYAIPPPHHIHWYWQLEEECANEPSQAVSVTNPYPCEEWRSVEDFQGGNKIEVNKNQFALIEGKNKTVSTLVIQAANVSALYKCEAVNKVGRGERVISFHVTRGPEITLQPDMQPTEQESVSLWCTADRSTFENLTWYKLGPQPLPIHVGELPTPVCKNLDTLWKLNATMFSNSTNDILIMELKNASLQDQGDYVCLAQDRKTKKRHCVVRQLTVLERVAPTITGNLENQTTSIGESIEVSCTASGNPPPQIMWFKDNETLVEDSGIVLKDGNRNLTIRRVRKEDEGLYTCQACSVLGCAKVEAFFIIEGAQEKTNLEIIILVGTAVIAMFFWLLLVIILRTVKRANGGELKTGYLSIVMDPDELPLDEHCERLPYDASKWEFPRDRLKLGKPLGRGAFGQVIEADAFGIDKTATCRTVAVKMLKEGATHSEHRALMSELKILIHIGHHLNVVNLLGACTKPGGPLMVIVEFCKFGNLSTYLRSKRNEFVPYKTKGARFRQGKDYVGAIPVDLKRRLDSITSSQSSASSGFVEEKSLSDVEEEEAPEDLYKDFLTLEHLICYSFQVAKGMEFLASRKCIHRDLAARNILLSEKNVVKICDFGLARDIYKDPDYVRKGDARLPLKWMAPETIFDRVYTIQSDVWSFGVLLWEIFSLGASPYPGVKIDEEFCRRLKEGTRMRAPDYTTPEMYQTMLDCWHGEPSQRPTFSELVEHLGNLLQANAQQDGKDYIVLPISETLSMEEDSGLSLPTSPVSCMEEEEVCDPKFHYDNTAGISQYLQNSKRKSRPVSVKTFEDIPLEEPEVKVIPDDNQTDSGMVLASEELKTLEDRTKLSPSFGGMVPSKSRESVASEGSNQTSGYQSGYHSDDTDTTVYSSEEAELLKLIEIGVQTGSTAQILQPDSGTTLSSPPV

Alpha-1A adrenergic receptor (Homo sapiens), sequence (P35348 whole entry): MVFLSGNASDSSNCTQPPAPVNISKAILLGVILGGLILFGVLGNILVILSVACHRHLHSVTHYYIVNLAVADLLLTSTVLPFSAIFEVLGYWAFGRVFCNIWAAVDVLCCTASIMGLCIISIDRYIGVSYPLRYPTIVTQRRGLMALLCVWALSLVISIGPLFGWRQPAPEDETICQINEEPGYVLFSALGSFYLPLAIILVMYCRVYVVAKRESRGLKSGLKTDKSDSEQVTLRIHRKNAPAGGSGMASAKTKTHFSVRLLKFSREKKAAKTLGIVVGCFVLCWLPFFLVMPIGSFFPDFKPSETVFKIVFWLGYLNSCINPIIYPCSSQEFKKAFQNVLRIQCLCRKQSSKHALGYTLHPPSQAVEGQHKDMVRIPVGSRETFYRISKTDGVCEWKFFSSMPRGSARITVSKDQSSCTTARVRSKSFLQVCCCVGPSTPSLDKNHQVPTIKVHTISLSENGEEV

With COc1ncc(C)cc1CC[C@@](O)(CC(=O)O)C(=O)O the CL renal [1] was 4.4 mL/min/kg, the Activity [2] was “Active” and the Activity [3] was “Active”. The inhibition [4] was “inactive” and the inhibition [5] was “inactive”.
